Experimental data: patent US9555039B2, “Piperidine derivatives and compositions for the inhibition of nicotinamide phosphoribosyltransferase (NAMPT)” (Forma TM, LLC., priority 2011, dated 2017)
Where two headings read alike, the source gives them in different places.

Key:
[1] = tested on: A2780 cells; assay: In-vitro cell proliferation assay (SRB, 72 hours); assay type: cell-based; details: sulforhodamine B (SRB) assay
Outline: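 Background from media-only plate subtracted; inhibition relative to DMSO-treated cells, value derived by interpolation between two concentrations.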

[2] = target: T1, Recombinant His-tagged NAMPT (Homo sapiens, UniProt P43490); assay: Biochemical inhibition assay: NAMPT enzymatic reaction, NMN quantified by mass spectrometry; details: 33 nM NAMPT, 1 μM NAM, 100 μM PRPP, 30 minutes at room temperature, read-out: Biochem IC50
T1 construct: His; host or cells: E. coli
T1 sequence (P43490 whole entry): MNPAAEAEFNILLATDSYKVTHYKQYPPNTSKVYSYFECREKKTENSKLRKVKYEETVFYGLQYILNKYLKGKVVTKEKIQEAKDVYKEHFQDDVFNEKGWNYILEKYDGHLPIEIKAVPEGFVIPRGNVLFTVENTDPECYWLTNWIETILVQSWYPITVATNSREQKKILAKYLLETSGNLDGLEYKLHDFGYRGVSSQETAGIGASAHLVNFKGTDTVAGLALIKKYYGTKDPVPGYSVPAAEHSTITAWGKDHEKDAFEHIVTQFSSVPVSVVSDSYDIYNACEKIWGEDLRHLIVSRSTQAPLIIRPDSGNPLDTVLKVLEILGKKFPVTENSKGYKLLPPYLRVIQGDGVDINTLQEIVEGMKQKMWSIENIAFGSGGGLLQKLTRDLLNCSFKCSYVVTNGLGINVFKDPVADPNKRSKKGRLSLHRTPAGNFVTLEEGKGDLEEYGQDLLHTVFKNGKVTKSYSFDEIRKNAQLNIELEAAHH
Outline: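 Reaction 30 min at room temperature with 1 μM NAM, 100 μM PRPP, 2.5 mM ATP (final), quenched with formic acid. NMN quantified by RapidFire electrospray MS, normalized to L-cystathionine; IC50 from percent inhibition versus DMSO.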

In the case of `CSc1ncccc1C(=O)N1CCC(CCCCNC(=O)c2cc3ccncc3s2)CC1` [N-[4-(1-{[2-(methylsulfanyl)pyridin-3-yl]carbonyl}piperidin-4-yl)butyl]thieno[2,3-c]pyridine-2-carboxamide], the IC50 ([1]; Homo sapiens) is reported as 1.4 nM and the IC50 ([2]; 2.5 mM ATP) is reported as 10.1 nM.

For `O=C(NCCCCC1CCN(C(=O)c2csc(-c3cccnc3)n2)CC1)c1cc2cnccc2[nH]1` [N-[4-(1-{[2-(pyridin-3-yl)-1,3-thiazol-4-yl]carbonyl}piperidin-4-yl)butyl]-1H-pyrrolo[3,2-c]pyridine-2-carboxamide], the IC50 ([1]; Homo sapiens) was 14.9 nM and the IC50 ([2]; 2.5 mM ATP) was 81.1 nM.

With `O=C(NCCCCC1CCN(C(=O)c2csc(-c3cccnc3)n2)CC1)c1ccc2nccn2c1` [N-[4-(1-{[2-(pyridin-3-yl)-1,3-thiazol-4-yl]carbonyl}piperidin-4-yl)butyl]imidazo[1,2-a]pyridine-6-carboxamide] the IC50 ([1]; Homo sapiens) was 67 nM and the IC50 ([2]; 2.5 mM ATP) was 61.1 nM.

In the case of `O=C(NCCCCC1CCN(C(=O)c2csc(-c3cccnc3)n2)CC1)c1cc2ccncc2s1` [N-[4-(1-{[2-(pyridin-3-yl)-1,3-thiazol-4-yl]carbonyl}piperidin-4-yl)butyl]thieno[2,3-c]pyridine-2-carboxamide], the IC50 ([1]; Homo sapiens) is reported as 85.3 nM and the IC50 ([2]; 2.5 mM ATP) is reported as 70.6 nM.

In the case of `O=C(NCCCCC1CCN(S(=O)(=O)c2ccccc2OC(F)(F)F)CC1)c1cc2cnccc2[nH]1` [N-[4-(1-{[2-(trifluoromethoxy)benzene]sulfonyl}piperidin-4-yl)butyl]-1H-pyrrolo[3,2-c]pyridine-2-carboxamide], the IC50 [1] is reported as 3.3 nM and the IC50 ([2]; […] ATP) is reported as 22.6 nM.

Compound `O=C(NCCCCC1CCN(C(=O)c2ccccc2OC(F)(F)F)CC1)c1cc2cnccc2[nH]1` [N-[4-(1-{[2-(trifluoromethoxy)phenyl]carbonyl}piperidin-4-yl)butyl]-1H-pyrrolo[3,2-c]pyridine-2-carboxamide] has an IC50 ([1]; Homo sapiens) of 1.3 nM and an IC50 ([2]; 2.5 mM ATP) of 20.5 nM.

Work on `O=C(NCCCCC1CCN(C(=O)c2ccccc2OC(F)(F)F)CC1)c1ccc2nccn2c1` [N-[4-(1-{[2-(trifluoromethoxy)phenyl]carbonyl}piperidin-4-yl)butyl]imidazo[1,2-a]pyridine-6-carboxamide] yielded an IC50 ([1]; Homo sapiens) of 1.9 nM and an IC50 ([2]; 2.5 mM ATP) of 2.5 nM.

`O=C(NCCCCC1CCN(C(=O)c2ccccc2OC(F)(F)F)CC1)c1cc2ccncc2s1` [N-[4-(1-{[2-(trifluoromethoxy)phenyl]carbonyl}piperidin-4-yl)butyl]thieno[2,3-c]pyridine-2-carboxamide] gave an IC50 ([1]; Homo sapiens) of 3.1 nM and an IC50 ([2]; 2.5 mM ATP) of 10.4 nM.

`O=C(NCCCCC1CCN(C(=O)c2csc(C(F)(F)F)n2)CC1)c1ccc2nccn2c1` [N-[4-(1-{[2-(trifluoromethyl)-1,3-thiazol-4-yl]carbonyl}piperidin-4-yl)butyl]imidazo[1,2-a]pyridine-6-carboxamide] gave an IC50 ([1]; Homo sapiens) of 74 nM and an IC50 ([2]; 2.5 mM ATP) of 74.3 nM.

In the case of `O=C(NCCCCC1CCN(C(=O)c2csc(C(F)(F)F)n2)CC1)c1cc2ccncc2s1` [N-[4-(1-{[2-(trifluoromethyl)-1,3-thiazol-4-yl]carbonyl}piperidin-4-yl)butyl]thieno[2,3-c]pyridine-2-carboxamide], the IC50 ([1]; Homo sapiens) is reported as 100 to 1000 nM and the IC50 ([2]; 2.5 mM ATP) is reported as 94 nM.

Work on `O=C(NCCCCC1CCN(C(=O)c2cnc(C(F)(F)F)nc2)CC1)c1cc2cnccc2[nH]1` [N-[4-(1-{[2-(trifluoromethyl)pyrimidin-5-yl]carbonyl}piperidin-4-yl)butyl]-1H-pyrrolo[3,2-c]pyridine-2-carboxamide] yielded an IC50 ([1]; Homo sapiens) of 100 to 1000 nM and an IC50 ([2]; 2.5 mM ATP) of 242 nM.

`O=C(NCCCCC1CCN(C(=O)c2cnc(C(F)(F)F)nc2)CC1)c1cc2ccncc2s1` [N-[4-(1-{[2-(trifluoromethyl)pyrimidin-5-yl]carbonyl}piperidin-4-yl)butyl]thieno[2,3-c]pyridine-2-carboxamide] showed an IC50 ([1]; Homo sapiens) of 100 to 1000 nM and an IC50 ([2]; 2.5 mM ATP) of 158 nM.

In the case of `O=C(NCCCCC1CCN(S(=O)(=O)c2cccc(OC(F)(F)F)c2)CC1)c1cc2cnccc2[nH]1` [N-[4-(1-{[3-(trifluoromethoxy)benzene]sulfonyl}piperidin-4-yl)butyl]-1H-pyrrolo[3,2-c]pyridine-2-carboxamide], the IC50 [1] is reported as 18.7 nM and the IC50 ([2]; […] ATP) is reported as 77.8 nM.

`O=C(NCCCCC1CCN(C(=O)c2ccc(-n3cccn3)cc2)CC1)c1cc2cnccc2[nH]1` [N-[4-(1-{[4-(1H-pyrazol-1-yl)phenyl]carbonyl}piperidin-4-yl)butyl]-1H-pyrrolo[3,2-c]pyridine-2-carboxamide] gave an IC50 ([1]; Homo sapiens) of 13.6 nM and an IC50 ([2]; 2.5 mM ATP) of 50.7 nM.

Compound `O=C(NCCCCC1CCN(C(=O)c2ccc(-n3cccn3)cc2)CC1)c1cc2ccncc2s1` [N-[4-(1-{[4-(1H-pyrazol-1-yl)phenyl]carbonyl}piperidin-4-yl)butyl]thieno[2,3-c]pyridine-2-carboxamide] has an IC50 ([1]; Homo sapiens) of 100 to 1000 nM and an IC50 ([2]; 2.5 mM ATP) of 48.1 nM.

In the case of `O=C(NCCCCC1CCN(C(=O)c2ccc(OC(F)F)cc2)CC1)c1cc2cnccc2[nH]1` [N-[4-(1-{[4-(difluoromethoxy)phenyl]carbonyl}piperidin-4-yl)butyl]-1H-pyrrolo[3,2-c]pyridine-2-carboxamide], the IC50 ([1]; Homo sapiens) is reported as 31.4 nM and the IC50 ([2]; 2.5 mM ATP) is reported as 183 nM.

`O=C(NCCCCC1CCN(C(=O)c2ccc(OC(F)F)cc2)CC1)c1ccc2nccn2c1` [N-[4-(1-{[4-(difluoromethoxy)phenyl]carbonyl}piperidin-4-yl)butyl]imidazo[1,2-a]pyridine-6-carboxamide] showed an IC50 ([1]; Homo sapiens) of 101 nM and an IC50 ([2]; 2.5 mM ATP) of 42.7 nM.

In the case of `O=C(NCCCCC1CCN(C(=O)c2ccc(OC(F)F)cc2)CC1)c1cc2ccncc2s1` [N-[4-(1-{[4-(difluoromethoxy)phenyl]carbonyl}piperidin-4-yl)butyl]thieno[2,3-c]pyridine-2-carboxamide], the IC50 ([1]; Homo sapiens) is reported as 100 to 1000 nM and the IC50 ([2]; 2.5 mM ATP) is reported as 77.4 nM.

`CC(C)c1ncoc1C(=O)N1CCC(CCCCNC(=O)c2cc3cnccc3[nH]2)CC1` [N-[4-(1-{[4-(propan-2-yl)-1,3-oxazol-5-yl]carbonyl}piperidin-4-yl)butyl]-1H-pyrrolo[3,2-c]pyridine-2-carboxamide] showed an IC50 ([1]; Homo sapiens) of 5.3 nM and an IC50 ([2]; 2.5 mM ATP) of 30.4 nM.

For `CC(C)c1ncoc1C(=O)N1CCC(CCCCNC(=O)c2ccc3nccn3c2)CC1` [N-[4-(1-{[4-(propan-2-yl)-1,3-oxazol-5-yl]carbonyl}piperidin-4-yl)butyl]imidazo[1,2-a]pyridine-6-carboxamide], the IC50 ([1]; Homo sapiens) was 8.2 nM and the IC50 ([2]; 2.5 mM ATP) was 27.5 nM.

`CC(C)Oc1ccc(C(=O)N2CCC(CCCCNC(=O)c3cc4cnccc4[nH]3)CC2)cc1` [N-[4-(1-{[4-(propan-2-yloxy)phenyl]carbonyl}piperidin-4-yl)butyl]-1H-pyrrolo[3,2-c]pyridine-2-carboxamide] showed an IC50 ([1]; Homo sapiens) of 13.1 nM and an IC50 ([2]; 2.5 mM ATP) of 93.7 nM.

`CC(C)Oc1ccc(C(=O)N2CCC(CCCCNC(=O)c3ccc4nccn4c3)CC2)cc1` [N-[4-(1-{[4-(propan-2-yloxy)phenyl]carbonyl}piperidin-4-yl)butyl]imidazo[1,2-a]pyridine-6-carboxamide] gave an IC50 ([1]; Homo sapiens) of 20.9 nM and an IC50 ([2]; 2.5 mM ATP) of 55.2 nM.

`CC(C)Oc1ccc(C(=O)N2CCC(CCCCNC(=O)c3cc4ccncc4s3)CC2)cc1` [N-[4-(1-{[4-(propan-2-yloxy)phenyl]carbonyl}piperidin-4-yl)butyl]thieno[2,3-c]pyridine-2-carboxamide] gave an IC50 ([1]; Homo sapiens) of 100 to 1000 nM and an IC50 ([2]; 2.5 mM ATP) of 40 nM.

`O=C(NCCCCC1CCN(S(=O)(=O)c2ccc(OC(F)(F)F)cc2)CC1)c1cc2cnccc2[nH]1` [N-[4-(1-{[4-(trifluoromethoxy)benzene]sulfonyl}piperidin-4-yl)butyl]-1H-pyrrolo[3,2-c]pyridine-2-carboxamide] showed an IC50 [1] of 27.2 nM and an IC50 ([2]; […] ATP) of 76 nM.

`O=C(NCCCCC1CCN(C(=O)c2ccc(OC(F)(F)F)cc2)CC1)c1cc2cnccc2[nH]1` [N-[4-(1-{[4-(trifluoromethoxy)phenyl]carbonyl}piperidin-4-yl)butyl]-1H-pyrrolo[3,2-c]pyridine-2-carboxamide] showed an IC50 ([1]; Homo sapiens) of 12.7 nM and an IC50 ([2]; 2.5 mM ATP) of 145 nM.

In the case of `O=C(NCCCCC1CCN(C(=O)c2ccc(OC(F)(F)F)cc2)CC1)c1ccc2nccn2c1` [N-[4-(1-{[4-(trifluoromethoxy)phenyl]carbonyl}piperidin-4-yl)butyl]imidazo[1,2-a]pyridine-6-carboxamide], the IC50 ([1]; Homo sapiens) is reported as 100 to 1000 nM and the IC50 ([2]; 2.5 mM ATP) is reported as 91 nM.

With `O=C(NCCCCC1CCN(C(=O)c2ccc(OC(F)(F)F)cc2)CC1)c1cc2ccncc2s1` [N-[4-(1-{[4-(trifluoromethoxy)phenyl]carbonyl}piperidin-4-yl)butyl]thieno[2,3-c]pyridine-2-carboxamide] the IC50 ([1]; Homo sapiens) was 100 to 1000 nM and the IC50 ([2]; 2.5 mM ATP) was 166 nM.

For `O=C(NCCCCC1CCN(S(=O)(=O)c2ccc(C(F)(F)F)cc2)CC1)c1cc2cnccc2[nH]1` [N-[4-(1-{[4-(trifluoromethyl)benzene]sulfonyl}piperidin-4-yl)butyl]-1H-pyrrolo[3,2-c]pyridine-2-carboxamide], the IC50 ([1]; Homo sapiens) was 23.3 nM and the IC50 ([2]; 2.5 mM ATP) was 74.8 nM.

`O=C(NCCCCC1CCN(C(=O)c2ccc(C(F)(F)F)cc2)CC1)c1cc2cnccc2[nH]1` [N-[4-(1-{[4-(trifluoromethyl)phenyl]carbonyl}piperidin-4-yl)butyl]-1H-pyrrolo[3,2-c]pyridine-2-carboxamide] was tested, and the IC50 ([1]; Homo sapiens) was 38.1 nM and the IC50 ([2]; 2.5 mM ATP) was 164 nM.

`O=C(NCCCCC1CCN(C(=O)c2ccc(C(F)(F)F)cc2)CC1)c1ccc2nccn2c1` [N-[4-(1-{[4-(trifluoromethyl)phenyl]carbonyl}piperidin-4-yl)butyl]imidazo[1,2-a]pyridine-6-carboxamide] showed an IC50 ([1]; Homo sapiens) of 100 to 1000 nM and an IC50 ([2]; 2.5 mM ATP) of 152 nM.

Work on `O=C(NCCCCC1CCN(C(=O)c2ccc(C(F)(F)F)cc2)CC1)c1cc2ccncc2s1` [N-[4-(1-{[4-(trifluoromethyl)phenyl]carbonyl}piperidin-4-yl)butyl]thieno[2,3-c]pyridine-2-carboxamide] yielded an IC50 ([1]; Homo sapiens) of 1000 nM and an IC50 ([2]; 2.5 mM ATP) of 305 nM.

`O=C(NCCCCC1CCN(C(=O)c2cnccc2C(F)(F)F)CC1)c1cc2cnccc2[nH]1` [N-[4-(1-{[4-(trifluoromethyl)pyridin-3-yl]carbonyl}piperidin-4-yl)butyl]-1H-pyrrolo[3,2-c]pyridine-2-carboxamide] was tested, and the IC50 ([1]; Homo sapiens) was 2.9 nM and the IC50 ([2]; 2.5 mM ATP) was 39.8 nM.
